# In paper PMC5218480 (PLoS ONE, 2017):
# Test system: MV-4-11 cells
# Experiment: Gene expression microarray analysis (Affymetrix PrimeView) and GSEA
# Assay type: cell-based, human
# Design: RFU PODN (11730768_x_at) / Fold change /veh PODN (11730768_x_at) / RFU LINC00158 (11744669_a_at) / Fold change /veh LINC00158 (11744669_a_at) / RFU DUSP10 (11751237_a_at) / Fold change /veh DUSP10 (11751237_a_at) / RFU ID3 (11757404_x_at) / Fold change /veh ID3 (11757404_x_at) / RFU PLEKHG5 (11737974_s_at) / Fold change /veh PLEKHG5 (11737974_s_at) / RFU LRRC4B (11730491_at) / Fold change /veh LRRC4B (11730491_at) / RFU GIMAP4 (11747438_a_at) / Fold change /veh GIMAP4 (11747438_a_at) / RFU KRT8 (11758183_x_at) / Fold change /veh KRT8 (11758183_x_at) / RFU CNN1 (11734310_a_at) / Fold change /veh CNN1 (11734310_a_at) / RFU VPS37D (11726825_at) / Fold change /veh VPS37D (11726825_at) / RFU C10orf10 (11716522_x_at) / Fold change /veh C10orf10 (11716522_x_at) / RFU KIR2DL2 /// KIR2DL4 /// KIR2DL5A /// KIR2DL5B /// KIR2DS1 /// KIR2DS2 /// KIR2DS3 /// KIR2DS4 /// KIR3DL3 /// KIR3DL3 /// KIR3DS1 (11738374_at) / Fold change /veh KIR2DL2 /// KIR2DL4 /// KIR2DL5A /// KIR2DL5B /// KIR2DS1 /// KIR2DS2 /// KIR2DS3 /// KIR2DS4 /// KIR3DL3 /// KIR3DL3 /// KIR3DS1 (11738374_at) / RFU C1QL1 (11718748_at) / Fold change /veh C1QL1 (11718748_at) / RFU TMPRSS4 (11747572_a_at) / Fold change /veh TMPRSS4 (11747572_a_at) / RFU HAMP (11756126_x_at) / Fold change /veh HAMP (11756126_x_at) / RFU RNFT2 (11725882_a_at) / Fold change /veh RNFT2 (11725882_a_at) / RFU NR4A2 (11747474_a_at) / Fold change /veh NR4A2 (11747474_a_at) / RFU ABCC12 (11746883_a_at) / Fold change /veh ABCC12 (11746883_a_at) / RFU TMEM136 (11760407_x_at) / Fold change /veh TMEM136 (11760407_x_at) / RFU CLDN22 /// WWC2 (11732394_at) / Fold change /veh CLDN22 /// WWC2 (11732394_at) / RFU HLA-DPB1 (11760878_x_at) / Fold change /veh HLA-DPB1 (11760878_x_at) / RFU SPINT1 (11716480_a_at) / Fold change /veh SPINT1 (11716480_a_at) / RFU GAP43 (11754022_s_at) / Fold change /veh GAP43 (11754022_s_at) / RFU A4GNT (11735810_at) / Fold change /veh A4GNT (11735810_at) / RFU PRB3 (11715151_x_at) / Fold change /veh PRB3 (11715151_x_at) / RFU TUBB4B (11761932_at) / Fold change /veh TUBB4B (11761932_at) / RFU CAPN14 (11732068_a_at) / Fold change /veh CAPN14 (11732068_a_at) / RFU TMCC2 (11721928_a_at) / Fold change /veh TMCC2 (11721928_a_at) / RFU IRGQ (11745062_a_at) / Fold change /veh IRGQ (11745062_a_at) / RFU FAM174B (11720279_a_at) / Fold change /veh FAM174B (11720279_a_at) / RFU TMPRSS4 (11748680_a_at) / Fold change /veh TMPRSS4 (11748680_a_at) / RFU FAM212B (11763350_a_at) / Fold change /veh FAM212B (11763350_a_at) / RFU PLEKHG5 (11743358_a_at) / Fold change /veh PLEKHG5 (11743358_a_at) / RFU ZSCAN30 (11745921_a_at) / Fold change /veh ZSCAN30 (11745921_a_at) / RFU CMKLR1 (11741424_a_at) / Fold change /veh CMKLR1 (11741424_a_at) / RFU LOC101060620 /// MAPK8IP1 (11723275_at) / Fold change /veh LOC101060620 /// MAPK8IP1 (11723275_at) / RFU SPTSSB (11747773_x_at) / Fold change /veh SPTSSB (11747773_x_at) / RFU PRSS12 (11739890_at) / Fold change /veh PRSS12 (11739890_at) / RFU BIN1 (11741810_x_at) / Fold change /veh BIN1 (11741810_x_at) / RFU WNT11 (11732464_a_at) / Fold change /veh WNT11 (11732464_a_at) / RFU C10orf10 (11716521_a_at) / Fold change /veh C10orf10 (11716521_a_at) / RFU C5orf56 (11738089_at) / Fold change /veh C5orf56 (11738089_at) / RFU CYB561 (11721691_x_at) / Fold change /veh CYB561 (11721691_x_at) / RFU ANKRD19P (11752326_a_at) / Fold change /veh ANKRD19P (11752326_a_at) / RFU OR2T12 /// OR2T33 /// OR2T8 (11738714_s_at) / Fold change /veh OR2T12 /// OR2T33 /// OR2T8 (11738714_s_at) / RFU VCAN (11748164_a_at) / Fold change /veh VCAN (11748164_a_at) / RFU JSRP1 (11732532_at) / Fold change /veh JSRP1 (11732532_at) / RFU KRTAP10-11 (11738290_x_at) / Fold change /veh KRTAP10-11 (11738290_x_at) / RFU MYO3A (11730013_a_at) / Fold change /veh MYO3A (11730013_a_at) / RFU EBF3 (11725865_a_at) / Fold change /veh EBF3 (11725865_a_at) / RFU CAMK2N1 (11719241_x_at) / Fold change /veh CAMK2N1 (11719241_x_at) / RFU C5orf56 (11738088_a_at) / Fold change /veh C5orf56 (11738088_a_at) / RFU OLFML3 (11715873_a_at) / Fold change /veh OLFML3 (11715873_a_at) / RFU LOC100653217 /// NTM (11731650_a_at) / Fold change /veh LOC100653217 /// NTM (11731650_a_at) / RFU MAPK11 (11762145_a_at) / Fold change /veh MAPK11 (11762145_a_at) / RFU FIZ1 (11724087_x_at) / Fold change /veh FIZ1 (11724087_x_at) / RFU OASL (11726364_x_at) / Fold change /veh OASL (11726364_x_at) / RFU SOX15 (11748057_x_at) / Fold change /veh SOX15 (11748057_x_at) / RFU CD79A (11719716_a_at) / Fold change /veh CD79A (11719716_a_at) / RFU HIST1H1D (11736915_at) / Fold change /veh HIST1H1D (11736915_at) / RFU CASKIN2 (11723855_a_at) / Fold change /veh CASKIN2 (11723855_a_at) / RFU LOC730098 (11760151_x_at) / Fold change /veh LOC730098 (11760151_x_at) / RFU OR4N2 (11742367_at) / Fold change /veh OR4N2 (11742367_at) / RFU PRRT2 (11749266_a_at) / Fold change /veh PRRT2 (11749266_a_at) / RFU SNX32 (11753110_a_at) / Fold change /veh SNX32 (11753110_a_at) / RFU CDHR5 (11726645_a_at) / Fold change /veh CDHR5 (11726645_a_at) / RFU RCAN1 (11760418_a_at) / Fold change /veh RCAN1 (11760418_a_at) / RFU FAM167A (11723789_a_at) / Fold change /veh FAM167A (11723789_a_at) / RFU FAM26E (11764081_at) / Fold change /veh FAM26E (11764081_at) / RFU ISYNA1 (11749810_s_at) / Fold change /veh ISYNA1 (11749810_s_at) / RFU ACY1 (11761880_at) / Fold change /veh ACY1 (11761880_at) / RFU 11764098_at / Fold change /veh 11764098_at / RFU SAMD14 (11745864_x_at) / Fold change /veh SAMD14 (11745864_x_at) / RFU NPB (11741838_a_at) / Fold change /veh NPB (11741838_a_at) / RFU TMPRSS6 (11731388_a_at) / Fold change /veh TMPRSS6 (11731388_a_at) / RFU KRTAP10-2 (11738614_at) / Fold change /veh KRTAP10-2 (11738614_at) / RFU ARHGAP8 /// PRR5-ARHGAP8 (11727945_x_at) / Fold change /veh ARHGAP8 /// PRR5-ARHGAP8 (11727945_x_at) / RFU KRTAP5-7 /// NADSYN1 (11734609_at) / Fold change /veh KRTAP5-7 /// NADSYN1 (11734609_at) / RFU RASL12 (11751679_a_at) / Fold change /veh RASL12 (11751679_a_at) / RFU CDKN2B (11736163_a_at) / Fold change /veh CDKN2B (11736163_a_at) / RFU PRF1 (11729649_at) / Fold change /veh PRF1 (11729649_at) / RFU, ZNF638 /// ZNF638-IT1 / Fold change vs veh, ZNF638 /// ZNF638-IT1 / RFU, PANK3 / Fold change vs veh, PANK3 / RFU, SH3YL1 / Fold change vs veh, SH3YL1 / RFU, ZEB2 / Fold change vs veh, ZEB2 / RFU, NRIP1 / Fold change vs veh, NRIP1 / RFU, PTTG1IP / Fold change vs veh, PTTG1IP / RFU, CAPN2 / Fold change vs veh, CAPN2 / RFU, MED14 / Fold change vs veh, MED14 / RFU, SNORA58 / Fold change vs veh, SNORA58 / RFU, C1orf63 / Fold change vs veh, C1orf63 / RFU, LRRFIP1 / Fold change vs veh, LRRFIP1 / RFU, NDUFAF7 / Fold change vs veh, NDUFAF7 / RFU, SLC12A2 / Fold change vs veh, SLC12A2 / RFU, IBTK / Fold change vs veh, IBTK / RFU, ESF1 / Fold change vs veh, ESF1 / Fold change vs veh, TMEM50B / RFU, TAOK1 / Fold change vs veh, TAOK1 / RFU, ACBD3 / Fold change vs veh, ACBD3 / RFU, TMA16 / Fold change vs veh, TMA16 / RFU, RWDD3 / Fold change vs veh, RWDD3 / RFU, BCAT1 / Fold change vs veh, BCAT1 / RFU, EDEM3 / Fold change vs veh, EDEM3 / RFU, TMEM33 / Fold change vs veh, TMEM33 / RFU, WDR75 / Fold change vs veh, WDR75 / RFU, AHCTF1 / Fold change vs veh, AHCTF1 / RFU, TFRC / Fold change vs veh, TFRC / RFU, ZDHHC17 / Fold change vs veh, ZDHHC17 / RFU, NOM1 / Fold change vs veh, NOM1 / RFU, ARL8B / Fold change vs veh, ARL8B / RFU, ZBTB11 / Fold change vs veh, ZBTB11 / RFU, TAMM41 / Fold change vs veh, TAMM41 / RFU, KIAA1704 /// LOC100996395 / Fold change vs veh, KIAA1704 /// LOC100996395 / RFU, ING1 / Fold change vs veh, ING1 / RFU, TRMT61B / Fold change vs veh, TRMT61B / RFU, FUBP3 / Fold change vs veh, FUBP3 / RFU, TP53 / Fold change vs veh, TP53 / RFU, TNKS2 / Fold change vs veh, TNKS2 / RFU, ZFP14 / Fold change vs veh, ZFP14 / RFU, ACTR2 / Fold change vs veh, ACTR2 / RFU, PPP3R1 / Fold change vs veh, PPP3R1 / RFU, PIK3R1 / Fold change vs veh, PIK3R1 / RFU, HNRNPA1 / Fold change vs veh, HNRNPA1 / RFU, RNF170 / Fold change vs veh, RNF170 / RFU, ZNF28 / Fold change vs veh, ZNF28 / RFU, RNGTT / Fold change vs veh, RNGTT / RFU, OGT / Fold change vs veh, OGT / RFU, BRD1 / Fold change vs veh, BRD1 / RFU, MARS / Fold change vs veh, MARS / RFU, ZNF655 / Fold change vs veh, ZNF655 / RFU, FAHD1 / Fold change vs veh, FAHD1 / RFU, BDP1 / Fold change vs veh, BDP1 / RFU, LRRCC1 / Fold change vs veh, LRRCC1 / RFU, ARID1A / Fold change vs veh, ARID1A / RFU, ZNF146 / Fold change vs veh, ZNF146 / RFU, ZNF330 / Fold change vs veh, ZNF330 / RFU, GPN3 / Fold change vs veh, GPN3 / RFU, C9orf123 / Fold change vs veh, C9orf123 / RFU, N4BP2L2 / Fold change vs veh, N4BP2L2 / RFU, ARFIP1 / Fold change vs veh, ARFIP1 / RFU, FAM179B / Fold change vs veh, FAM179B / RFU, BCL10 / Fold change vs veh, BCL10 / RFU, UHRF1BP1L / Fold change vs veh, UHRF1BP1L / RFU, BET1 / Fold change vs veh, BET1 / RFU, CNOT2 / Fold change vs veh, CNOT2 / RFU, ZNF268 / Fold change vs veh, ZNF268 / Fold change vs veh, ZNF507 / RFU, DGCR2 / Fold change vs veh, DGCR2 / RFU, WDSUB1 / Fold change vs veh, WDSUB1 / Fold change vs veh, HSP90B1 /// MIR3652 / RFU, ADSS / Fold change vs veh, ADSS / RFU, GK / Fold change vs veh, GK / RFU, ZNF148 / Fold change vs veh, ZNF148 / RFU, TAF9 / Fold change vs veh, TAF9 / RFU, SLC1A5 / Fold change vs veh, SLC1A5 / RFU, SLMO2 / Fold change vs veh, SLMO2 / RFU, ABCC4 / Fold change vs veh, ABCC4 / RFU, LOC101060439 /// RAP1B / Fold change vs veh, LOC101060439 /// RAP1B / RFU, RFX7 / Fold change vs veh, RFX7 / RFU, GTPBP10 / Fold change vs veh, GTPBP10 / RFU, CNEP1R1 / Fold change vs veh, CNEP1R1 / RFU, BIVM-ERCC5 /// ERCC5 / Fold change vs veh, BIVM-ERCC5 /// ERCC5 / RFU, ILF3 / Fold change vs veh, ILF3 / RFU 11762660_at / Fold change /veh 11762660_at / RFU VCAN (11757783_s_at) / Fold change /veh VCAN (11757783_s_at) / RFU DDX43 (11728927_at) / Fold change /veh DDX43 (11728927_at) / RFU KRT8 (11758188_x_at) / Fold change /veh KRT8 (11758188_x_at) / RFU NKD1 (11759106_at) / Fold change /veh NKD1 (11759106_at) / RFU SRD5A1 (11742802_a_at) / Fold change /veh SRD5A1 (11742802_a_at) / RFU TPSAB1 /// TPSB2 (11721975_s_at) / Fold change /veh TPSAB1 /// TPSB2 (11721975_s_at) / RFU GSTM3 (11746129_a_at) / Fold change /veh GSTM3 (11746129_a_at) / RFU IL23R (11737362_x_at) / Fold change /veh IL23R (11737362_x_at) / RFU TMEM51 (11727254_a_at) / Fold change /veh TMEM51 (11727254_a_at) / RFU PIWIL2 (11732686_x_at) / Fold change /veh PIWIL2 (11732686_x_at) / RFU ORM1 (11744905_x_at) / Fold change /veh ORM1 (11744905_x_at) / RFU CCDC152 (11743942_at) / Fold change /veh CCDC152 (11743942_at) / RFU ECM1 (11717891_a_at) / Fold change /veh ECM1 (11717891_a_at) / RFU IL23R (11748794_a_at) / Fold change /veh IL23R (11748794_a_at) / RFU TNFAIP8L3 (11732012_x_at) / Fold change /veh TNFAIP8L3 (11732012_x_at) / RFU MBOAT4 (11741988_at) / Fold change /veh MBOAT4 (11741988_at) / RFU 11764193_at / Fold change /veh 11764193_at / RFU TMEM53 (11763286_at) / Fold change /veh TMEM53 (11763286_at) / RFU MAGEB2 (11727129_at) / Fold change /veh MAGEB2 (11727129_at) / RFU TMEM200A (11744735_a_at) / Fold change /veh TMEM200A (11744735_a_at) / RFU CCDC152 (11751479_a_at) / Fold change /veh CCDC152 (11751479_a_at) / RFU FAM211A (11726209_a_at) / Fold change /veh FAM211A (11726209_a_at) / RFU RGS16 (11746705_a_at) / Fold change /veh RGS16 (11746705_a_at) / RFU VCAN (11755009_s_at) / Fold change /veh VCAN (11755009_s_at) / RFU RHOB (11743442_s_at) / Fold change /veh RHOB (11743442_s_at) / RFU RGS16 (11720943_a_at) / Fold change /veh RGS16 (11720943_a_at) / RFU RGS16 (11720944_at) / Fold change /veh RGS16 (11720944_at) / RFU, VPS4B / Fold change vs veh, VPS4B / RFU, CREB1 / Fold change vs veh, CREB1 / RFU, DNAJC13 / Fold change vs veh, DNAJC13 / RFU, GNAQ / Fold change vs veh, GNAQ / RFU, CDK5R1 / Fold change vs veh, CDK5R1 / RFU, ZRANB3 / Fold change vs veh, ZRANB3 / RFU, CUL4A / Fold change vs veh, CUL4A / RFU, CCNY / Fold change vs veh, CCNY / RFU, UFL1 / Fold change vs veh, UFL1 / RFU, COG3 / Fold change vs veh, COG3 / RFU, DIAPH2 / Fold change vs veh, DIAPH2 / RFU, SKA2 / Fold change vs veh, SKA2 / RFU, AFF3 / Fold change vs veh, AFF3 / RFU, LMF1 / Fold change vs veh, LMF1 / RFU, IPO11 / Fold change vs veh, IPO11 / RFU, DFFB / Fold change vs veh, DFFB / RFU, FOXP1 / Fold change vs veh, FOXP1 / RFU, CARD8 / Fold change vs veh, CARD8 / RFU, STRN3 / Fold change vs veh, STRN3 / RFU, ADK / Fold change vs veh, ADK / RFU, RASSF2 / Fold change vs veh, RASSF2 / RFU, WIPF1 / Fold change vs veh, WIPF1 / RFU, LARP1B / Fold change vs veh, LARP1B / RFU, RASA1 / Fold change vs veh, RASA1 / RFU, RB1 / Fold change vs veh, RB1 / RFU, PPFIA1 / Fold change vs veh, PPFIA1 / RFU, MAT2A / Fold change vs veh, MAT2A / RFU, CCT5 / Fold change vs veh, CCT5 / RFU, WDR92 / Fold change vs veh, WDR92 / RFU, CUX1 / Fold change vs veh, CUX1 / RFU, TTC7A / Fold change vs veh, TTC7A / RFU, TMEM135 / Fold change vs veh, TMEM135 / RFU, DEPTOR / Fold change vs veh, DEPTOR / RFU, CPM / Fold change vs veh, CPM / RFU, DNAJB6 / Fold change vs veh, DNAJB6 / RFU, CACNA2D3 / Fold change vs veh, CACNA2D3 / RFU, DTX4 / Fold change vs veh, DTX4 / RFU, TFCP2 / Fold change vs veh, TFCP2 / RFU, GMCL1 /// GMCL1P1 / Fold change vs veh, GMCL1 /// GMCL1P1 / RFU, AEBP2 / Fold change vs veh, AEBP2 / RFU, SNHG1 /// SNORD22 /// SNORD25 /// SNORD26 /// SNORD27 /// SNORD28 /// SNORD29 /// SNORD31 / Fold change vs veh, SNHG1 /// SNORD22 /// SNORD25 /// SNORD26 /// SNORD27 /// SNORD28 /// SNORD29 /// SNORD31 / Fold change (Aza/veh), C12orf56 (ProbeSet 11735607_a_at) / Fold change (ACY-1035/veh), C12orf56 (ProbeSet 11735607_a_at) / Fold change (Aza/veh), FGFR1OP (ProbeSet 11751329_s_at) / Fold change (ACY-1035/veh), FGFR1OP (ProbeSet 11751329_s_at) / Fold change (Aza/veh), VPS36 (ProbeSet 11739960_a_at) / Fold change (ACY-1035/veh), VPS36 (ProbeSet 11739960_a_at) / RFU SYPL1 (11715823_x_at) / Fold change /veh SYPL1 (11715823_x_at) / RFU IGFBP7 (11715501_s_at) / Fold change /veh IGFBP7 (11715501_s_at) / RFU REEP3 (11722064_at) / Fold change /veh REEP3 (11722064_at) / RFU IGLL1 (11728026_x_at) / Fold change /veh IGLL1 (11728026_x_at): dose or concentration left out as unconfirmed
# Settings: MV-4-11 cells, 48 hours
compound,measurement,value
Nc1ccc(-c2cccs2)cc1NC(=O)c1ccc2c(c1)cc(C1CC1)n2CCN1CCOCC1 [ACY-1035],Fold change /veh C5orf56 (11738088_a_at),0.99
